Test results reported in patent US4668677A, “4-phenylphthalazine derivatives, their preparation and their use as pharmaceuticals” (Mitsubishi Chemical Industries Limited, priority 1984, dated 1987).
Where two headings read alike, the source gives them in different places.

How the values were obtained:
in vivo = conditions: rat, po, rats
[1] = system: PGI2-like substance in vessel walls; assay: Influence on production of PGI2-like substance in vessel walls (ADP aggregation with carotid artery ring); type: in vivo, rat (male Wistar-ST strain); conditions: 1 hour, 10 μM ADP
Description: Male Wistar-ST strain rats with an average weight of about 250 g were used as experimental animals. After fasted for 18 hours, 6.3 ml of blood sample were obtained from corotid artery and immediately thereafter 0.7 ml of an anticoagulant (3.8% sodium citrate) was added and the sample was centrifuged at 200×g over 15 minutes to take platelet-rich plasma (PRP). The same procedures as above were carried out, using 5 to 6 rats, whereby 5-6 ml as normal PRP were stored and employed.
Reference aggregation values were determined by pouring 1 ml each of stored PRP into plastic test tubes, incubating them at 22° C. for 10 minutes and then determining aggregation rate. As an aggregation inducing agent, one employed 10 μM ADP (available from Sigma Co., Inc.)
A suspension of the compound of this invention or aspirin in a 1% aqueous solution of tragacanth was orally given to animals. After 1 hour, 5 mg of carotid artery were cut out in a ring shape and placed into a plastic test tube together with 1 ml of stored PRP. After incubated at 22° C. for 10 minutes, aggregation rate was determined.
Also, non-medicated groups were similarly treated and aggregation rate was determined.
Determination of blood platelet aggregation rate was made by means of an aggregometer.

rabbits = assay: Anti-thrombotic activity: arachidonic acid-induced mortality in rabbits; type: in vivo, rabbit (male New Zealand White)
Description: (§1) Male ICR-JCL strain mice with an average body weight of about 25 g and male New Zealand White rabbits with an average body weight of about 3 Kg were used.
Where rabbits were used as experimental animals, a suspension of the test compound in a 1% tragacanth aqueous solution was orally administered to animals at 5 ml/Kg. Two hours after the administration, an arachidonic acid solution dissolved in a 0.1M potassium carbonate solution was injected into pinna vein at 1.4 mg/Kg.
Evaluation of activity was effected with mortality at the time when arachidonic acid given. If survived at the first administration of arachidonic acid, arachidonic acid was administered after 6 hours, 24 hours, 48 hours and 72 hours from the administration of the test compound, respectively, and mortality was determined in respective cases.

femoral artery = assay: Action on blood pressure in femoral artery; type: in vivo, rabbit (male New Zealand White)
Description: (§2) Male New Zealand White rabbits (body weight of 2.8 Kg to 3.5 Kg) were used and anesthetized with pentobarbital sodium. Blood flow volumes in the carotid artery and femoral artery were measured and recorded via a non-blood observing type of a probe for measuring blood flow volume. Also, blood pressure in femoral artery was simultaneously measured and recorded with measurement of blood flow.
(§3) The compound of this invention was dissolved in an aqueous solution containing 1% tartaric acid and 1% dimethylacetamide, while papaverine hydrochloride dissolved in 0.9% physiological saline. These test compounds were intravenously given through a residual polyethylene tube within femoral vein.

mice = assay: Anti-thrombotic activity: arachidonic acid-induced mortality in mice; type: in vivo, mouse (male ICR-JCL strain); conditions: for Survival time of dead mice: arachidonic acid 100 mg/Kg i.v.; for Mortality: arachidonic acid 100 mg/Kg i.v. after 1 hour
Description: as §1
Where mice were used as experimental animals, a suspension of the test compound indicated in Table 3 in a 1% tragacanth aqueous solution was orally administered to animals at 20 ml/Kg. One hour after the administration, an arachidonic acid (PL-biochemical Co., Inc.) solution dissolved in a 0.1M sodium carbonate aqueous solution was intravenously given at 100 mg/Kg. Evaluation of activity was effected with the time from the administration of arachidonic acid up to the death of animals as well as mortality.

carotid artery = assay: Action on blood flow volume in carotid artery; type: in vivo, rabbit (male New Zealand White)
Description: as §2, §3

blood platelets = assay: Activity to inhibit the aggregation of blood platelets (collagen, ex vivo after oral administration); type: in vivo, rat (male Wistar-ST strain); conditions: Rattus norvegicus, Platelet
Description: Male Wistar-ST strain rats of an average body weight of 250 g were used, a group consisting of 8 animals. The test compound indicated in the following Table 1 was orally administered to rats in the form of a suspension in a 1% tragacanth aqueous solution at 4 ml/Kg (the test compound 10 mg/Kg).
One hour after the administration, blood samples were obtained from the carotid artery by means of a cannule. […] Tubes were turned upside-down and then subjected to centrifugation at 200×g over 15 minutes to assign the supernatant as a platelet-rich plasma (PRP). The residue was further centrifuged at […] over 15 minutes to assign the supernatant as a platelet-poor plasma (PPP). These supernatants were applied for determining the ability to aggregate blood platelets. […] As an aggregation inducing agent, collagen (availale from Hormon-chemie A.G.) was used at a concentration of 7 to 10 μg/ml.
Inhibitory rate to aggregate blood platelets was calculated according to the following equation: [formula] A: […] in the group to which the 1% tragacanth solution alone was given (Control)
B: Aggregation rate in the group to which the tragacanth solution of the test compound was given.

Question: For CC(C)(C)CNc1nnc(-c2ccccc2)c2ccccc12 [Compound 1, 1-neopentylamino-4-phenylphthalazine], which LD50 (in vivo) is on record?
Answer: > 8000 mg/kg

Question: And the “Aggregation rate with ADP when carotid artery ring added” value (shortened to “Aggregation rate with ADP”) ([1]; 3 mg/Kg oral)?
Answer: 2.7%

Question: What about the “Aggregation rate with ADP” value ([1]; 10 mg/Kg oral) of the same molecule?
Answer: 17.7%

Question: And the “Aggregation rate with ADP” value ([1]; 30 mg/Kg oral)?
Answer: 10.0%

Question: What about the “Mortality (number of rabbits)” value (rabbits; 10 mg/Kg oral, 2 hrs. after administration, of 4 rabbits) of the same molecule?
Answer: 1

Question: And the “Mortality (number of rabbits)” value (rabbits; 10 mg/Kg oral, 6 hrs. after administration, of 4 rabbits)?
Answer: 2

Question: What about the “Mortality (number of rabbits)” value (rabbits; 10 mg/Kg oral, 24 hrs. after administration, of 4 rabbits) of the same molecule?
Answer: 1

Question: And the “Mortality (number of rabbits)” value (rabbits; 30 mg/Kg oral, 24 hrs. after administration, of 8 (Compound 1) or 4 rabbits)?
Answer: 3

Question: And the “Mortality (number of rabbits)” value (rabbits; 30 mg/Kg oral, 48 hrs. after administration, of 8 (Compound 1) or 4 rabbits)?
Answer: 1

Question: What about the “Mortality (number of rabbits)” value (rabbits; 30 mg/Kg oral, 72 hrs. after administration, of 8 rabbits) of the same molecule?
Answer: 4

Question: And the “Blood pressure in femoral artery, A: Before administration” value (“Blood pressure … Before administration” for short) (femoral artery; 0.01 mg/kg i.v.)?
Answer: 96.0 mmHg

Question: And the “Blood pressure in femoral artery, B: After administration” value (from here on “Blood pressure in femoral artery, B”) (femoral artery; 0.01 mg/kg i.v.)?
Answer: 92.3 mmHg

Question: What about the “Blood pressure in femoral artery, E: Lowering degree” value (“Blood pressure … Lowering degree” for short) (femoral artery; 0.01 mg/kg i.v.) of the same molecule?
Answer: 3.7 mmHg

Question: What about the “Blood pressure in femoral artery, F: Lowering rate” value (“Blood pressure … Lowering rate” below) (femoral artery; 0.01 mg/kg i.v.) of the same molecule?
Answer: 3.8%

Question: What about the “Blood pressure … Before administration” value (femoral artery; 0.05 mg/kg i.v.) of the same molecule?
Answer: 91.7 mmHg

Question: What about the “Blood pressure in femoral artery, B” value (femoral artery; 0.05 mg/kg i.v.) of the same molecule?
Answer: 81.7 mmHg

Question: And the “Blood pressure … Lowering degree” value (femoral artery; 0.05 mg/kg i.v.)?
Answer: 10.0 mmHg

Question: And the “Blood pressure … Lowering rate” value (femoral artery; 0.05 mg/kg i.v.)?
Answer: 10.9%

Question: And the “Blood pressure … Before administration” value (femoral artery; 0.1 mg/kg i.v.)?
Answer: 90.0 mmHg

Question: And the “Blood pressure in femoral artery, B” value (femoral artery; 0.1 mg/kg i.v.)?
Answer: 81.7 mmHg

Question: What about the “Blood pressure … Lowering degree” value (femoral artery; 0.1 mg/kg i.v.) of the same molecule?
Answer: 8.3 mmHg

Question: And the “Blood pressure … Lowering rate” value (femoral artery; 0.1 mg/kg i.v.)?
Answer: 8.8%

Question: What about the “Blood pressure … Before administration” value (femoral artery; 0.5 mg/kg i.v.) of the same molecule?
Answer: 86.7 mmHg

Question: And the “Blood pressure in femoral artery, B” value (femoral artery; 0.5 mg/kg i.v.)?
Answer: 63.2 mmHg

Question: And the “Blood pressure … Lowering degree” value (femoral artery; 0.5 mg/kg i.v.)?
Answer: 23.5 mmHg

Question: What about the “Blood pressure … Lowering rate” value (femoral artery; 0.5 mg/kg i.v.) of the same molecule?
Answer: 30.1%

Question: And the “Survival time of dead mice” value (mice; 30 mg/Kg oral)?
Answer: 101 ± 11 s

Question: And the Mortality (mice; 30 mg/Kg oral)?
Answer: 75%

Question: And the “Survival time of dead mice” value (mice; 100 mg/Kg oral)?
Answer: 108 ± 11 s

Question: And the Mortality (mice; 100 mg/Kg oral)?
Answer: 75%

Question: And the Mortality (mice; 300 mg/Kg oral)?
Answer: 0%

Question: And the “Blood flow volume in carotid artery, A: Before administration” value (“Blood flow volume … Before administration” for short) (carotid artery; 0.01 mg/Kg i.v.)?
Answer: 15.5 mL/min

Question: What about the “Blood flow volume in carotid artery, B: After administration” value (“Blood flow volume in carotid artery, B” for short) (carotid artery; 0.01 mg/Kg i.v.) of the same molecule?
Answer: 21.9 mL/min

Question: And the “Blood flow volume in carotid artery, C: Increase degree” value (“Blood flow volume … Increase degree” below) (carotid artery; 0.01 mg/Kg i.v.)?
Answer: 6.3 mL/min

Question: What about the “Blood flow volume in carotid artery, D: Increase rate” value (from here on “Blood flow volume … Increase rate”) (carotid artery; 0.01 mg/Kg i.v.) of the same molecule?
Answer: 40.8%

Question: What about the “Blood flow volume … Before administration” value (carotid artery; 0.05 mg/Kg i.v.) of the same molecule?
Answer: 14.5 mL/min

Question: What about the “Blood flow volume in carotid artery, B” value (carotid artery; 0.05 mg/Kg i.v.) of the same molecule?
Answer: 22.7 mL/min

Question: What about the “Blood flow volume … Increase degree” value (carotid artery; 0.05 mg/Kg i.v.) of the same molecule?
Answer: 8.1 mL/min

Question: And the “Blood flow volume … Increase rate” value (carotid artery; 0.05 mg/Kg i.v.)?
Answer: 53.7%

Question: What about the “Blood flow volume … Before administration” value (carotid artery; 0.1 mg/Kg i.v.) of the same molecule?
Answer: 15.4 mL/min

Question: What about the “Blood flow volume in carotid artery, B” value (carotid artery; 0.1 mg/Kg i.v.) of the same molecule?
Answer: 26.9 mL/min

Question: And the “Blood flow volume … Increase degree” value (carotid artery; 0.1 mg/Kg i.v.)?
Answer: 11.5 mL/min

Question: What about the “Blood flow volume … Increase rate” value (carotid artery; 0.1 mg/Kg i.v.) of the same molecule?
Answer: 74.2%

Question: What about the “Blood flow volume … Before administration” value (carotid artery; 0.5 mg/Kg i.v.) of the same molecule?
Answer: 17.3 mL/min

Question: What about the “Blood flow volume in carotid artery, B” value (carotid artery; 0.5 mg/Kg i.v.) of the same molecule?
Answer: 35.1 mL/min

Question: And the “Blood flow volume … Increase degree” value (carotid artery; 0.5 mg/Kg i.v.)?
Answer: 17.8 mL/min

Question: And the “Blood flow volume … Increase rate” value (carotid artery; 0.5 mg/Kg i.v.)?
Answer: 109.7%

Question: What about the inhibition at 3 mg/kg (blood platelets; 3 mg/Kg oral (Table 5), read-out: Inhibitory rate of blood platelet aggregation) of the same molecule?
Answer: 48.1%

Question: And the inhibition at 10 mg/kg (blood platelets; 10 mg/Kg oral (Table 5), read-out: Inhibitory rate of blood platelet aggregation)?
Answer: 100%

Question: What about the inhibition at 10 mg/kg (blood platelets; 10 mg/Kg oral, 1 hour after administration, collagen 7 to 10 μg/ml, read-out: Inhibitory rate (blood platelet aggregation)) of the same molecule?
Answer: 100%

Question: And the inhibition at 30 mg/kg (blood platelets; 30 mg/Kg oral (Table 5), read-out: Inhibitory rate of blood platelet aggregation)?
Answer: 100%
